How the values were obtained:
Test in all cases: combination Emax (second highest fraction inhibited in the dose matrix, 72 h); higher = more inhibition; extreme values may be limits of the assay
[1] = tested on: PC-3_[JPC-3] (Lung Adenocarcinoma)
Summary of the method: (§1)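 Cell lines in DMEM/F12 or RPMI with 10% FBS were plated in 1536-well plates, held 24 hours at 37°C, 5% CO2, then given two-drug dose matrices for 72 hours (DMSO typically 0.2%). Viability was read by CellTiter-Glo 2.0 luminescence and scaled as inhibition from 0 (vehicle wells) to 1 (blank wells). Combination Emax is the second-highest inhibition in the matrix; Bliss excess is observed combination effect minus expected EA + EB − EA·EB, EA and EB being single-agent effects.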

[2] = tested on: PSN1 (Pancreatic Carcinoma)
Summary of the method: as §1

[3] = tested on: NCI-H2342 (Lung Adenocarcinoma)
Summary of the method: as §1

LN-229 (Glioblastoma) = tested on: LN-229 (Glioblastoma)
Summary of the method: as §1

[4] = tested on: NCI-H446 (Small Cell Lung Carcinoma)
Summary of the method: as §1

[5] = tested on: RCM-1 (Colorectal Carcinoma)
Summary of the method: as §1

[6] = tested on: L-1236 (Hodgkin's Lymphoma)
Summary of the method: as §1

SF268 (Low Grade Glioma) = tested on: SF268 (Low Grade Glioma)
Summary of the method: as §1

[7] = tested on: OPM-2 (Plasma Cell Myeloma)
Summary of the method: as §1

[8] = tested on: RERF-GC-1B (Gastric Carcinoma)
Summary of the method: as §1

[9] = tested on: LB996-RCC (Kidney Carcinoma)
Summary of the method: as §1

[10] = tested on: VAL (B-Cell Non-Hodgkin's Lymphoma)
Summary of the method: as §1

[11] = tested on: LXF-289 (Lung Adenocarcinoma)
Summary of the method: as §1

[12] = tested on: FADU (Head and Neck Carcinoma)
Summary of the method: as §1

[13] = tested on: KE-37 (T-Lymphoblastic Leukemia)
Summary of the method: as §1

[14] = tested on: HCT-15 (Colorectal Carcinoma)
Summary of the method: as §1

[15] = tested on: SK-PN-DW (Other Solid Carcinomas)
Summary of the method: as §1

[16] = tested on: GP5d (Colorectal Carcinoma)
Summary of the method: as §1

[17] = tested on: HEC-1 (Endometrial Carcinoma)
Summary of the method: as §1

[18] = tested on: HSC-39 (Gastric Carcinoma)
Summary of the method: as §1

Cc1c2c(nn1C)CSCc1cc(n(C)n1)CSc1cc(c3ccccc3c1)OCCCc1c(C(=O)O)n(C)c3c-2c(Cl)ccc13 [AZD5991] + C=CCn1c(=O)c2cnc(Nc3ccc(N4CCN(C)CC4)cc3)nc2n1-c1cccc(C(C)(C)O)n1 [AZD1775] (first compound max 1 µM, partner max 1 µM)
combination Emax [1]: 0.466
combination Emax [2]: 0.475
combination Emax [3]: 0.306
combination Emax (LN-229 (Glioblastoma)): 0.855
combination Emax [4]: 0.941
combination Emax [5]: 0.536
combination Emax [6]: 0.824
combination Emax (SF268 (Low Grade Glioma)): 0.577
combination Emax [7]: 1
combination Emax [8]: 1
combination Emax [9]: 0.856
combination Emax [10]: 0.887
combination Emax [11]: 0.813
combination Emax [12]: 0.963
combination Emax [13]: 0.995
combination Emax [14]: 0.557
combination Emax [15]: 0.962
combination Emax [16]: 0.977
combination Emax [17]: 0.247
combination Emax [18]: 1

Cc1c2c(nn1C)CSCc1cc(n(C)n1)CSc1cc(c3ccccc3c1)OCCCc1c(C(=O)O)n(C)c3c-2c(Cl)ccc13 [AZD5991] + CC1(C)CCC(CN2CCN(c3ccc(C(=O)NS(=O)(=O)c4ccc(NCC5CCOCC5)c([N+](=O)[O-])c4)c(Oc4cnc5[nH]ccc5c4)c3)CC2)=C(c2ccc(Cl)cc2)C1 [Venetoclax] (first compound max 1 µM, 7x7, partner max 1 µM)
combination Emax [1]: 0.254
combination Emax [2]: 0.145
combination Emax [3]: 0.262
combination Emax (LN-229 (Glioblastoma)): 0.503
combination Emax [4]: 0.86
combination Emax [5]: 0.171
combination Emax [6]: 0.764
combination Emax (SF268 (Low Grade Glioma)): 0.248
combination Emax [7]: 1
combination Emax [8]: 1
combination Emax [9]: 0.199
combination Emax [10]: 1
combination Emax [11]: 0.296
combination Emax [12]: 0.946
combination Emax [13]: 0.987
combination Emax [14]: 0.182
combination Emax [15]: 0.929
combination Emax [16]: 0.928
combination Emax [17]: 0.173
combination Emax [18]: 1

Cc1c2c(nn1C)CSCc1cc(n(C)n1)CSc1cc(c3ccccc3c1)OCCCc1c(C(=O)O)n(C)c3c-2c(Cl)ccc13 [AZD5991] + CCN(CCO)CCCOc1ccc2c(Nc3cc(CC(=O)Nc4cccc(F)c4)[nH]n3)ncnc2c1 [AZD2811] (first compound max 1 µM, 7x7, partner max 1 µM)
combination Emax [1]: 0.274
combination Emax [2]: 0.319
combination Emax [3]: 0.427
combination Emax (LN-229 (Glioblastoma)): 0.522
combination Emax [4]: 0.926
combination Emax [5]: 0.347
combination Emax [6]: 0.491
combination Emax (SF268 (Low Grade Glioma)): 0.472
combination Emax [7]: 1
combination Emax [8]: 0.998
combination Emax [9]: 0.405
combination Emax [10]: 0.909
combination Emax [11]: 0.864
combination Emax [12]: 0.986
combination Emax [13]: 1
combination Emax [14]: 0.263
combination Emax [15]: 0.985
combination Emax [16]: 0.956
combination Emax [17]: 0.217
combination Emax [18]: 1

Cc1c2c(nn1C)CSCc1cc(n(C)n1)CSc1cc(c3ccccc3c1)OCCCc1c(C(=O)O)n(C)c3c-2c(Cl)ccc13 [AZD5991] + CN(C)CCCOc1ccc(-c2ccc3ncc4c(c3c2)n(C2CCOCC2)c(=O)n4C)cn1 [AZD0156] (first compound max 1 µM, 7x7, partner max 1 µM)
combination Emax [1]: 0.279
combination Emax [2]: 0.397
combination Emax [3]: 0.278
combination Emax (LN-229 (Glioblastoma)): 0.483
combination Emax [4]: 0.67
combination Emax [5]: 0.232
combination Emax [6]: 0.331
combination Emax (SF268 (Low Grade Glioma)): 0.3
combination Emax [7]: 1
combination Emax [8]: 0.978
combination Emax [9]: 0.265
combination Emax [10]: 0.657
combination Emax [11]: 0.427
combination Emax [12]: 0.972
combination Emax [13]: 0.939
combination Emax [14]: 0.197
combination Emax [15]: 0.835
combination Emax [16]: 0.817
combination Emax [17]: 0.195
combination Emax [18]: 1

Cc1c2c(nn1C)CSCc1cc(n(C)n1)CSc1cc(c3ccccc3c1)OCCCc1c(C(=O)O)n(C)c3c-2c(Cl)ccc13 [AZD5991] + C[C@@H]1COCCN1C2=NC(=NC(=C2)C3(CC3)[S@](=N)(=O)C)C4=C5C=CNC5=NC=C4 [AZD6738] (first compound max 1 µM, 7x7, partner max 10 µM)
combination Emax [1]: 0.37
combination Emax [2]: 0.488
combination Emax [3]: 0.333
combination Emax (LN-229 (Glioblastoma)): 0.777
combination Emax [4]: 0.948
combination Emax [5]: 0.801
combination Emax [6]: 0.74
combination Emax (SF268 (Low Grade Glioma)): 0.692
combination Emax [7]: 1
combination Emax [8]: 1
combination Emax [9]: 0.752
combination Emax [10]: 0.933
combination Emax [11]: 0.776
combination Emax [12]: 0.985
combination Emax [13]: 1
combination Emax [14]: 0.733
combination Emax [15]: 0.947
combination Emax [16]: 0.984
combination Emax [17]: 0.404
combination Emax [18]: 1

Cc1c2c(nn1C)CSCc1cc(n(C)n1)CSc1cc(c3ccccc3c1)OCCCc1c(C(=O)O)n(C)c3c-2c(Cl)ccc13 [AZD5991] + C[C@@H](Nc1cc(F)cc(F)c1)c1cc(C(=O)N(C)C)cc2c(=O)cc(N3CCOCC3)oc12 [AZD8186] (first compound max 1 µM, 7x7, partner max 3 µM)
combination Emax [1]: 0.348
combination Emax [2]: 0.375
combination Emax [3]: 0.294
combination Emax (LN-229 (Glioblastoma)): 0.546
combination Emax [4]: 0.882
combination Emax [5]: 0.285
combination Emax [6]: 0.291
combination Emax (SF268 (Low Grade Glioma)): 0.3
combination Emax [7]: 1
combination Emax [8]: 0.98
combination Emax [9]: 0.373
combination Emax [10]: 0.744
combination Emax [11]: 0.47
combination Emax [12]: 0.968
combination Emax [13]: 0.919
combination Emax [14]: 0.194
combination Emax [15]: 0.911
combination Emax [16]: 0.817
combination Emax [17]: 0.14
combination Emax [18]: 1

Source: the supplement of paper PMC11061612
